The NIST ThermoML archive (doi:10.1016/j.tca.2018.07.016)
“And” between values parts separate entries of the source, which are not always exact repeats. Identical values can stand only once.

Details: Liquid, Transpiration method

C1CCCCNCCC1 [octamethylenimine]
Details | vapor or sublimation pressure [kPa]
274.6 K | 0.01266
278.3 K | 0.01754
283.3 K | 0.02575
288.3 K | 0.03757
293.2 K | 0.05489
298.1 K | 0.07468
304.1 K | 0.1162
309.1 K | 0.1671
313.3 K | 0.2073
318.1 K | 0.2813
323.4 K | 0.3868

C1CCCNCCC1 [heptamethyleneimine]
Details | vapor or sublimation pressure
276.1 K | 0.08722 kPa
279.6 K | 0.1144 kPa
281.3 K | 0.1316 kPa
285.2 K | 0.1719 kPa
288.3 K | 0.22 kPa
292.1 K | 0.277 kPa
292.3 K | 0.2658 kPa
295.2 K | 0.3338 kPa
299 K | 0.4239 kPa
299.2 K | 0.4202 kPa
302.1 K | 0.5212 kPa
306.1 K | 0.6926 kPa
309 K | 0.8283 kPa and 0.7923 kPa
313 K | 1.016 kPa
317 K | 1.311 kPa
319.8 K | 1.44 kPa
322 K | 1.585 kPa
324.9 K | 1.97 kPa

C1CCCNCC1 [azacycloheptane]
Details | vapor or sublimation pressure [kPa]
275.3 K | 0.2584
278.3 K | 0.3225
281 K | 0.3957
284.2 K | 0.4858
287.3 K | 0.604
290.2 K | 0.7427
293.2 K | 0.8989
296.2 K | 1.051
302.2 K | 1.525
305.2 K | 1.824
308.1 K | 2.177
311.2 K | 2.409
314.2 K | 3.025
317.2 K | 3.485
321.2 K | 4.037
